pIC50: −log10 of the molar value. Like-named read-outs stand apart in the source and are kept apart here.
Key:
[1] = target: T1, K-Ras G12V (Homo sapiens, UniProt P01116, G12V); experiment: SOS1 catalyzed nucleotide exchange assay (GDP form K-Ras), K-Ras G12V; details: read-out: K-Ras G12V GDP Biochemical Activity (IC50)
[2] = target: T2, K-Ras G12C (Homo sapiens, UniProt P01116, G12C); experiment: GTP-K-Ras and cRAF interaction assay (GppNp-K-Ras), K-Ras G12C; details: read-out: K-Ras G12C GppNp Biochemical Activity (IC50)
[3] = target: T3, K-Ras G12R (Homo sapiens, UniProt P01116, G12R); experiment: GTP-K-Ras and cRAF interaction assay (GppNp-K-Ras), K-Ras G12R; details: read-out: K-Ras G12R GppNp Biochemical Activity (IC50)
[4] = target: T4, K-Ras G12A (Homo sapiens, UniProt P01116, G12A); experiment: GTP-K-Ras and cRAF interaction assay (GppNp-K-Ras), K-Ras G12A; details: read-out: K-Ras G12A GppNp Biochemical Activity (IC50)
[5] = target: T5, K-Ras G13D (Homo sapiens, UniProt P01116, G13D)
[6] = target: T1, K-Ras G12V; experiment: GTP-K-Ras and cRAF interaction assay (GppNp-K-Ras), K-Ras G12V; details: read-out: K-Ras G12V GppNp Biochemical Activity (IC50)
[7] = target: T6, K-Ras WT (Homo sapiens, UniProt P01116); experiment: SOS1 catalyzed nucleotide exchange assay (GDP form K-Ras), K-Ras WT; details: read-out: K-Ras WT GDP Biochemical Activity (IC50)
[8] = target: T7, K-Ras Q61H (Homo sapiens, UniProt P01116, Q61H); experiment: SOS1 catalyzed nucleotide exchange assay (GDP form K-Ras), K-Ras Q61H; details: read-out: K-Ras Q61H GDP Biochemical Activity (IC50)
[9] = target: T2, K-Ras G12C; experiment: SOS1 catalyzed nucleotide exchange assay (GDP form K-Ras), K-Ras G12C; details: read-out: K-Ras G12C GDP Biochemical Activity (IC50)
[10] = target: T5, K-Ras G13D; experiment: GTP-K-Ras and cRAF interaction assay (GppNp-K-Ras), K-Ras G13D; details: read-out: K-Ras G13D GppNp Biochemical Activity (IC50)
[11] = target: T8, K-Ras G12D (Homo sapiens, UniProt P01116, G12D)
[12] = target: T3, K-Ras G12R; experiment: SOS1 catalyzed nucleotide exchange assay (GDP form K-Ras), K-Ras G12R; details: read-out: K-Ras G12R GDP Biochemical Activity (IC50)
[13] = target: T6, K-Ras WT; experiment: GTP-K-Ras and cRAF interaction assay (GppNp-K-Ras), K-Ras WT; details: read-out: K-Ras WT GppNp Biochemical Activity (IC50)
[14] = target: T4, K-Ras G12A; experiment: SOS1 catalyzed nucleotide exchange assay (GDP form K-Ras), K-Ras G12A; details: read-out: K-Ras G12A GDP Biochemical Activity (IC50)
[15] = target: T8, K-Ras G12D; experiment: GTP-K-Ras and cRAF interaction assay (GppNp-K-Ras), K-Ras G12D; details: read-out: K-Ras G12D GppNp Biochemical Activity (IC50)
[16] = target: T7, K-Ras Q61H; experiment: GTP-K-Ras and cRAF interaction assay (GppNp-K-Ras), K-Ras Q61H; details: read-out: K-Ras Q61H GppNp Biochemical Activity (IC50)
[17] = system: AsPC-1 cells (K-Ras G12D); experiment: 2D cell growth inhibition assay, AsPC-1; assay type: cell-based; details: Homo sapiens, ASPC1, 144 h, AsPC-1, K-Ras G12D, 6 days, absolute IC50
[18] = system: RERF-LC-Ad1 cells (K-Ras G12A)
Protocol: (§1) Each of cells in culture medium was plated in ultra-low attachment-coated 96-well plates at a density indicated in Table 25 and incubated in a cell incubator overnight. The next day, each of compounds was diluted in culture medium and added to the plates. After 6 days incubation in cell incubator, the cell viability was detected by CellTiter-Glo® 3D Cell Viability Assay kit (Promega).

[19] = system: AGS cells (K-Ras G12D); experiment: 2D cell growth inhibition assay, AGS; assay type: cell-based; details: Homo sapiens, 144 h, 6 days, absolute IC50
Protocol: (§2) The cell growth inhibition activity of each of compounds was tested by performing cell growth inhibition assays on a variety of K-Ras mutant and K-Ras WT cell lines indicated in Table 25.
(§3) Each of cells in culture medium was plated in TC-treated 96-well plates at a density indicated in Table 25 and incubated in a cell incubator overnight. The next day, each of compounds was diluted in culture medium and added to the plates. After 6 days incubation in cell incubator, the cell viability was detected by CellTiter-Glo® Cell Viability Assay kit (Promega).

[20] = system: p-ERK in NCI-H358 cells (K-Ras G12C); experiment: Phospho-ERK1/2(THR202/TYR204) HTRF assay, NCI-H358; assay type: cell-based; details: Homo sapiens, 2 hours incubation
Protocol: (§4) p-ERK (MAPK pathway) inhibition activity of each of compounds in a variety of K-Ras mutant and K-Ras WT cell lines indicated in Table 23 was evaluated.
(§5) Each of cells in culture medium was seeded in 96-well plates at density indicated in Table 23 and then put in a cell incubator to incubate overnight. The next day, the culture medium was removed and the compound diluted in assay medium was added in each well. […] 10 μL of cell lysates from the 96-well plates were transferred to a 384-well plate (Greiner) containing 2.5 μL/well HTRF® pre-mixed antibodies (Cisbio 64AERPEH). The plate was incubated 4 hours at 25° C. and then read HTRF signals on Tecan Spark multimode microplate reader. The data were analyzed using a 4-parameter logistic model to calculate IC50 values.

[21] = system: SW620 cells (K-Ras G12V); experiment: 2D cell growth inhibition assay, SW620; assay type: cell-based; details: Homo sapiens, SW-620, 144 h, 6 days, absolute IC50
Protocol: as §2, §3

[22] = system: p-ERK in TCC-PAN2 cells (K-Ras G12R); experiment: Phospho-ERK1/2(THR202/TYR204) HTRF assay, TCC-PAN2; assay type: cell-based; details: 2 hours incubation
Protocol: as §4, §5

[23] = system: p-ERK in MKN-1 cells (K-Ras WT amplification); experiment: Phospho-ERK1/2(THR202/TYR204) HTRF assay, MKN-1; assay type: cell-based; details: Homo sapiens; MKN-1, K-Ras WT, 2 hours incubation
Protocol: (§6) p-ERK (MAPK pathway) inhibition activity of each of compounds in a variety of K-Ras mutant and K-Ras WT cell lines indicated in Table 23 was evaluated. MKN-1 with K-Ras WT amplification is also a K-Ras dependent cell line.
as §5

[24] = system: TCC-PAN2 cells (K-Ras G12R); experiment: 3D cell growth inhibition assay, TCC-PAN2; assay type: cell-based; details: 144 h, 6 days, absolute IC50
Protocol: as §2, §1

[25] = system: p-ERK in NCI-H460 cells (K-Ras Q61H); experiment: Phospho-ERK1/2(THR202/TYR204) HTRF assay, NCI-H460; assay type: cell-based; details: Homo sapiens, 2 hours incubation
Protocol: as §6, §5

[26] = system: NCI-H358 cells (K-Ras G12C)
Protocol: as §1

[27] = system: p-ERK in SW620 cells (K-Ras G12V); experiment: Phospho-ERK1/2(THR202/TYR204) HTRF assay, SW620; assay type: cell-based; details: Homo sapiens, SW-620, 2 h, 2 hours incubation
Protocol: as §4, §5

[28] = system: Capan-2 cells (K-Ras G12V)
Protocol: as §2, §1

[29] = system: NCI-H460 cells (K-Ras Q61H); experiment: 3D cell growth inhibition assay, NCI-H460; assay type: cell-based; details: Homo sapiens, 144 h, 6 days, absolute IC50
Protocol: as §2, §1

[30] = system: MKN-1 cells (K-Ras WT); experiment: 3D cell growth inhibition assay, MKN-1; assay type: cell-based; details: Homo sapiens, 144 h, MKN-1, K-Ras WT, 6 days, absolute IC50
Protocol: as §2, §1

[31] = system: p-ERK in AGS cells (K-Ras G12D); experiment: Phospho-ERK1/2(THR202/TYR204) HTRF assay, AGS; assay type: cell-based; details: Homo sapiens, 2 h, 2 hours incubation
Protocol: as §4, §5

[32] = system: NCI-H747 cells (K-Ras G13D)
Protocol: as §2, §1

[33] = system: p-ERK in NCI-H747 cells (K-Ras G13D)
Protocol: as §4, §5

T6 sequence (P01116 1-169 isoform P01116-2): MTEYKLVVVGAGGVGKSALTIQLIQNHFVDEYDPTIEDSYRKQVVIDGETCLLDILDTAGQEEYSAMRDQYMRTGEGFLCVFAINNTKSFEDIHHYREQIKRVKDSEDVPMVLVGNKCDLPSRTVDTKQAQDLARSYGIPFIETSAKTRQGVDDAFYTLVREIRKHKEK
T1 sequence (P01116 1-169 isoform P01116-2 G12V): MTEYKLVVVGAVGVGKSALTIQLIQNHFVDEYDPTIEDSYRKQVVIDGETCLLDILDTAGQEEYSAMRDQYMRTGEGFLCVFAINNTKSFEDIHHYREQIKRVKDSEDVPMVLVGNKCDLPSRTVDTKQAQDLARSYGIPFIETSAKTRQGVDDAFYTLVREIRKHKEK
T5 sequence (P01116 1-169 isoform P01116-2 G13D): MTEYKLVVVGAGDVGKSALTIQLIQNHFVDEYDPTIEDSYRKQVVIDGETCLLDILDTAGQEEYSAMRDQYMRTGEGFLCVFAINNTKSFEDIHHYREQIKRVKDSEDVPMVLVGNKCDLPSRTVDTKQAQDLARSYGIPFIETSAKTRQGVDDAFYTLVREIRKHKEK
T3 sequence (P01116 1-169 isoform P01116-2 G12R): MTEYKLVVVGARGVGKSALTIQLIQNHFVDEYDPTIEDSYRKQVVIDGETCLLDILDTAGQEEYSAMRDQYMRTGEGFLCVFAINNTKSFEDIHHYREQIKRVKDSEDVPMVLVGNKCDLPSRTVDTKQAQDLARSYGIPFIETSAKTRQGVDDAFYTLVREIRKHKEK
T8 sequence (P01116 1-169 isoform P01116-2 G12D): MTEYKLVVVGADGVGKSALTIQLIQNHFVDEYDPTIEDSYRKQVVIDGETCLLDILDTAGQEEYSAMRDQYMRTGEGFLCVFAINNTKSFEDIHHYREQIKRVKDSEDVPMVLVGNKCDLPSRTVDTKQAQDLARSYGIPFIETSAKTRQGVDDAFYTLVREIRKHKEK
T7 sequence (P01116 1-169 isoform P01116-2 Q61H): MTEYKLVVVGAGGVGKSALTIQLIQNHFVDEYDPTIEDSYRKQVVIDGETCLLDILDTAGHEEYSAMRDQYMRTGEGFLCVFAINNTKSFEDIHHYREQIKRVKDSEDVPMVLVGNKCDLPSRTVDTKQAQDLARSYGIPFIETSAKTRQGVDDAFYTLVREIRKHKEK
T2 sequence (P01116 1-169 isoform P01116-2 G12C): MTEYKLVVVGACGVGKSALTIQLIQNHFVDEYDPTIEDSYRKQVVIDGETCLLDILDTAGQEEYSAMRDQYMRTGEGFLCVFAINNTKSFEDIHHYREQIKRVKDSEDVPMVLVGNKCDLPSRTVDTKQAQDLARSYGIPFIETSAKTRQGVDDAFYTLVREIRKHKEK
T4 sequence (P01116 1-169 isoform P01116-2 G12A): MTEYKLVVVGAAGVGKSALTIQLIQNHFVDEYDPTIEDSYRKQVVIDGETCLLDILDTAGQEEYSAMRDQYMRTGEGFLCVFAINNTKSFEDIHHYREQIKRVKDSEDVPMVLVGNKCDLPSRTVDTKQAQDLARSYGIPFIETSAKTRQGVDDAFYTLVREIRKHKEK

| Compound | pIC50 [1] | pIC50 [2] | pIC50 [3] | pIC50 [4] | pIC50 [5] | pIC50 [6] | pIC50 [7] | pIC50 [8] | pIC50 [9] | pIC50 [10] | pIC50 [11] | pIC50 [12] | pIC50 [13] | pIC50 [14] | pIC50 [15] | pIC50 [16] | other results |
| --- | --- | --- | --- | --- | --- | --- | --- | --- | --- | --- | --- | --- | --- | --- | --- | --- | --- |
| C#Cc1c(F)ccc2cc(O)cc(-c3c(Cl)cc4c(N5CCCOCC5)nc(OC[C@@]56CCCN5C[C@H](F)C6)nc4c3F)c12 (atropisomer, axis not shown; (M)) [Compound 19B, (M)-4-(6-chloro-8-fluoro-2-(((2R,7aS)-2-fluorotetrahydro-1H-pyrrolizin-7a(5H)-yl)methoxy)-4-(1,4-oxazepan-4-yl)quinazolin-7-yl)-5-ethynyl-6-fluoronaphthalen-2-ol trifluoroacetic acid] | 8.28 | 6.52 | 7.02 | 6.31 | 7.84 | 6.87 | 8.06 | 8.18 | 8.43 | 8.10 | 8.25 | 8.50 | 6.74 | 7.80 | 7.24 | 6.67 | – |
| C#Cc1c(F)ccc2cc(O)cc(-c3ncc4c(N5CCCOC[C@H]5C)nc(OC[C@@]56CCCN5C[C@H](F)C6)nc4c3F)c12 (single isomer, unassigned) [Compound 16B] | 9.05 | 7.23 | 7.80 | 7.01 | 8.65 | 7.98 | 8.76 | 8.94 | 8.95 | 8.64 | 9.24 | 9.00 | 7.67 | 8.79 | 8.13 | 7.41 | IC50 [17]: 53 nM; pIC50 [18]: 7.51; IC50 [19]: 5.82 nM; IC50 [20]: 2.1 nM; IC50 [21]: 8.77 nM; IC50 [22]: 97.6 nM; IC50 [23]: 2.97 nM; IC50 [24]: 319 nM; IC50 [25]: 18.1 nM; pIC50 [26]: 7.86; IC50 [27]: 5.07 nM; pIC50 [28]: 6.92; IC50 [29]: 296 nM; IC50 [30]: 20.9 nM; IC50 [31]: 1.44 nM; pIC50 [32]: 7.67; pIC50 [33]: 8.45 |
